According to PubChem BioAssay (NCI):
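Assay format: 96-well plates, 48-hour exposure. GI50: concentration for 50% inhibition of growth. TGI: concentration producing complete growth inhibition.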

Tests used:
Experiment in all cases: NCI tumour cell line growth inhibition, 48 h
SF-539 CNS = tested on: SF-539 CNS
OVCAR-8 ovarian = tested on: OVCAR-8 ovarian
UACC-257 melanoma = tested on: UACC-257 melanoma
MCF7 breast = tested on: MCF7 breast
UO-31 renal = tested on: UO-31 renal
U251 CNS = tested on: U251 CNS
NCI-H226 lung = tested on: NCI-H226 lung
M14 melanoma = tested on: M14 melanoma
786-0 renal = tested on: 786-0 renal
SNB-19 CNS = tested on: SNB-19 CNS

Row | Compound | TGI (SF-539 CNS) [µM] | TGI (OVCAR-8 ovarian) [µM] | TGI (UACC-257 melanoma) [µM] | TGI (MCF7 breast) [µM] | TGI (UO-31 renal) [µM] | TGI (U251 CNS) [µM] | TGI (NCI-H226 lung) [µM] | TGI (M14 melanoma) [µM] | TGI (786-0 renal) [µM] | TGI (SNB-19 CNS) [µM] | GI50 (SF-539 CNS) [µM] | GI50 (OVCAR-8 ovarian) [µM] | GI50 (U251 CNS) [µM] | GI50 (NCI-H226 lung) [µM]
1 | Cc1ccc(OCC2OC(n3cnc4c(Cl)nc(N)nc43)CC2Oc2ccc(C)cc2)cc1 (centres undefined) | > 100 | > 100 | > 100 | > 13.3 | 13.3 | > 100 | > 100 | > 100 | > 100 | > 100 |  |  |  | 
2 | C/C(=N/NC(=S)N1CCCCC1)c1ccccc1O | > 100 | > 31.6 | > 31.6 | > 31.6 | > 31.6 | > 31.6 | > 31.6 | > 31.6 | > 31.6 | > 31.6 |  |  |  | 
3 | O=S(Nc1ccccc1)c1ccc(N2CCOCC2)cc1 (centres undefined) | > 100 | > 100 | > 100 | > 100 | 42.7 | > 100 | > 100 | > 100 | > 100 | > 100 |  |  |  | 
4 | CCOc1ccc(N/C(=C(/C(Cl)=C(/Cl)N(CC)CC)[N+](=O)[O-])n2nnc3ccccc32)cc1 | 47.4 | 32.7 | > 100 | > 100 | 45.2 | 28.1 | > 100 | 79 | 33.2 | > 100 |  |  |  | 
5 | C[C@H](NC(=O)C(Cc1ccccc1)(Cc1ccc(O)cn1)NC(=O)c1ccccc1)c1ccccc1 (some centres undefined) | 34.2 | 42.1 | 34.5 | 75.5 | 29.1 | 28.6 | 36.5 | 29.4 | 31.3 | 39.4 |  |  |  | 
6 | CC(C)CNc1nc2ncnc(N)c2[nH]1 | > 100 | > 100 | > 100 | > 100 | > 100 | > 100 | > 100 | > 100 | > 100 | > 100 |  |  |  | 
7 | ClCCCc1ccccc1C1=NCCc2ccccc21 | > 100 | > 100 | > 100 | > 100 | > 100 | > 100 | > 100 | > 100 | > 100 | > 100 |  |  |  | 
8 | CCCCOC(=O)C(NC(C(=O)OCCCC)c1cc(C(C)(C)C)c(O)c(C(C)(C)C)c1)c1cc(C(C)(C)C)c(O)c(C(C)(C)C)c1 (centres undefined) | > 100 | > 100 | > 100 | > 100 | > 100 | > 100 | > 100 | > 100 | > 100 | > 100 |  |  |  | 
9 | C=C[C@@H](C)[C@H](NS(=O)(=O)c1ccc(C)cc1)C(=O)OCC | > 100 | > 100 | 71.5 | 70.6 | 96.1 | 97.3 | > 100 | > 100 | > 100 | > 100 |  |  |  | 
10 | O=C1C(Cl)=C(OCCCl)C(=O)c2c(O)ccc(O)c21 | 31.8 | 47.6 | 8.01 | 5.19 | 11 | 27.9 | 30.7 | 4.19 | 17.3 | 32.7 |  |  |  | 
11 | CN(C)c1ccc(/C(F)=C(F)/C(F)=C(F)/C(F)=C(\F)c2ccc(Br)cc2)cc1 | > 100 | > 96 | > 100 | > 100 | > 100 | 44.7 | > 100 | > 69.7 | 22.2 | > 78.5 |  |  |  | 
12 | CCCCCCCC/C=C\CCCCCCC/C=C1\C[C@](/C=C/C(=O)OC)(CO)OC1=O | 3.82 | 8.5 | 26.6 | 14.7 | 3.76 | 5.92 | 6.66 | 4.34 | 3.61 | 16 |  |  |  | 
13 | Cc1ccc([S@](=O)c2occc2C=O)cc1 | 25.8 | 25.4 | 26.3 | 13.3 | 23.2 | 27.4 | 38 | 20.7 | 11.3 | 18 |  |  |  | 
14 | OCC(O)C(O)C(O)C(O)c1nc2ccc(Cl)cc2[nH]1 (centres undefined) | > 100 | > 100 | > 100 | > 100 | > 100 | > 100 | > 100 | > 100 | > 100 | > 100 |  |  |  | 
15 | NS(=O)(=O)c1ccc(/C=C/c2ccc(F)cc2)cc1 | 96.1 | 30 | > 100 | > 100 | 61.1 | 45.7 | 27 | > 100 | 41.2 | > 100 | 29.1 | 15.2 | 7.93 | 7.97
16 | CSCCC(N)C(=O)NCCNc1ccc(NCCNC(=O)C(N)CCSC)c2c1C(=O)c1ccccc1C2=O (centres undefined) | 3.11 | 4.17 | 12.7 | 4.77 | 4.39 | 2.44 | 7.46 | 12 | 1.89 | 5.81 |  |  |  | 
17 | Cc1csc(NC23CC4CC(CC(C4)C2)C3)[n+]1C(P(=O)([O-])O)P(=O)(O)O (centres undefined) | > 100 | > 100 | > 100 | > 100 | > 100 | > 100 | > 100 | > 100 | > 100 | > 100 |  |  |  | 
18 | N#CC1(C#N)NC(c2cccs2)C(C#N)(C#N)NC1c1cccs1 (centres undefined) | 47.6 | > 100 | > 100 | 51.8 | > 100 | 64.5 | > 100 | > 100 | > 100 | > 100 |  |  |  | 
19 | OC1(c2ccccc2)CCN(Cc2c[nH]c3ccccc23)CC1 | > 100 | > 100 | 40.4 | > 100 | > 100 | > 100 | > 100 | 35 | > 100 | > 100 |  |  |  | 
20 | CC1(C)CC(O)C(C)(C)[C@@H](O)C1 (some centres undefined) | > 100 | > 100 | > 100 | > 100 | > 100 | > 100 | > 100 | > 100 | > 100 | > 100 |  |  |  | 
